Laboratory results reported in US6790951B1, “Expression system in microorganism and its use for expressing heterologous and homologous proteins” (priority 1995, dated 2004).
Ends that are not written are not given here.

Assays:
[1] = tested on: Lactobacillus plantarum C11; assay: Induction of bacteriocin production / gene expression in Lactobacillus plantarum C11; format: cell-based
Experimental: Experiments similar to the ones described in examples 1 and 2 were conducted with the bacteriocin producing strain Lactobacillus plantarum C11. These experiments yielded results that were essentially similar to the results described in examples 1 and 2. The sequence of the amphiphilic inducing peptide for the Lactobacillus plantarum C11 regulatory system is: […](26 residues) (SEQ. ID. NO: 1).
Observations essentially similar to the ones described by examples 1,2, and 4 have been made in relation to bacteriocin production by Lactobacillus plantarum C11. This strain produces a large number of bacteriocins, corresponding immunity proteins, and the 26-residue inducing peptide described in example 3. The corresponding genes have been cloned and sequenced. […] Promoter elements in front of the transcription start-points resemble those found in front of the genes involved in sakacin P production, as indicated in FIG. 4.
A 26-residue peptide (SEQ ID NO:1) with the sequence given in example 3 was synthesized.

[2] = Stability of the inducing component of culture medium to proteinase K and boiling; format: physicochemical
Source text: (§1) The Bac^+ phenotype of cells in this bacterial culture was lost upon diluting a Bac^+ LTH673 culture more than ˜2000-fold in fresh MRS-medium. […] Loss of the Bac^+ phenotype upon dilution or plating could be prevented by adding supernatant of an overnight Bac^+ LTH673 culture at an end concentration of minimally 0.05% (v/v). […] Colonies obtained after plating cells from a Bac^− culture in the presence of supernatant from a Bac^+ culture all were Bac^+.

[3] = tested on: genes involved in sakacin P production (FIG. 1) in Lactobacillus sake LTH673; assay: Northern blotting of transcripts of the sakacin P genes in Bac- LTH673 cultures after adding the peptide; format: cell-based; conditions: purified or synthetic peptide
Source text: 5. In bacteriocin deficient cultures of LTH673, transcription of the genes depicted in FIG. 1 could not be detected (by Northern blotting).
In cultures of Lactobacillus sake LTH673 with the Bac^− phenotype, transcription of the genes depicted in FIG. 1 could not be detected at any stage during growth (by Northern blotting).

[4] = tested on: Lactobacillus sake LTH673; assay: Induction or maintenance of bacteriocin (sakacin P) production, inducing-peptide production and immunity in Lactobacillus sake LTH673 cultures; format: cell-based; conditions: for induction of immunity to sakacin P / induction of production of the inducing peptide itself: added to Bac- Lactobacillus sake LTH673 cells; for induction of bacteriocin (sakacin P) production: added to Bac- Lactobacillus sake LTH673 cultures
Source text: This bacteriocin was later shown to be sakacin P (ref. 8). Bacterial cultures obtained by inoculating MRS medium (Difco Laboratories, Detroit, Mich., USA; or Oxoid ltd. Basingstoke, Hampshire, England) with material from this glycerol-stock produced sakacin P (Bac^+ phenotype) and, accordingly, were immune to purified sakacin P.
as §1
As indicated above Bac^− colonies of Lactobacillus sake LTH673 were obtained after plating cells from a Bac^+ culture. […] Glycerol stocks of such Bac^− cultures were made and fresh cultures obtained after inoculating MRS medium with an inoculum from such a glycerol stock again were Bac^−. In all cases tested, the only way to restore bacteriocin production was to add supernatant of a Bac^+ culture that thus, apparently, contains an inducing substance.
Lb. sake LTH673 (Bac^+) is immune to purified sakacin P and to several related purified bacteriocins. Immunity is caused by a specific protein that is produced concomitantly with the bacteriocin. Accordingly, we observed that the loss and induction of the Bac^+ phenotype was invariably accompanied by, respectively, the loss and induction of immunity to sakacin P. Another trait invariably linked to changes in the Bac phenotype was the inducing capacity itself: this capacity was only present in supernatants of Bac^+ cultures but not in the supernatants of Bac^− cultures.

Sequence	induction of gene expression (bacteriocin, immunity and inducing peptide genes) ([1]; Bac- cultures of Lactobacillus plantarum C11)	inducing effects of the synthetic peptide compared with Bac+ culture supernatants and the purified peptide ([1]; synthetic peptide, in Lactobacillus plantarum C11)	inducing activity after boiling ([2]; boiling for 10 minutes)	inducing activity after proteinase K treatment ([2]; culture medium treated with proteinase K)	detection of transcripts of the genes of FIG. 1 [3]	time until transcripts could be detected after adding the peptide [3]	induction of immunity to sakacin P [4]	induction of production of the inducing peptide itself [4]	induction of immunity to sakacin P ([4]; listed as purified peptide)	induction of production of the inducing peptide itself ([4]; listed as purified peptide)	induction of bacteriocin (sakacin P) production [4]	induction of bacteriocin (sakacin P) production ([4]; listed as purified peptide)	inducing effects of the synthetic peptide compared with Bac+ culture supernatants and the purified peptide ([4]; synthetic peptide, in Lactobacillus sake LTH673)
KSSAYSLQMGATAIKQVKKLFKKWGW [26-residue inducing peptide]	gene expression can be induced	same inducing effects											
MAGNSSNFIHKIKQIFTHR [19-residue peptide, purified or chemically synthesized]			not after boiling	lost	several transcripts could be detected	≤ 30 min	restored	restored	resulted in the induction	resulted in the induction	restored	resulted in the induction	same inducing effects
